Data reported in ChEMBL document CHEMBL5055626 (J Med Chem, 2021).
pIC50: −log10 of the molar value. The source made the active and inactive calls. The rule behind the calls is not given here. Where a SMILES comes first, the peptide text is derived from it. Bridges are numbered along the chain shown (N, C = ends).

Assays:
[1] = Antagonist activity at rat nAChR alpha7 K186R mutant expressed in xenopus oocytes assessed as inhibition of Ach- induced response at -70 mV holding potential preincubated for 5 mins followed by Ach stimulation by voltage-clamp based electrophysiological method; format: cell-based; conditions: Oocyte
[2] = molecular target: Neuronal acetylcholine receptor; alpha3/beta4 (Rattus norvegicus) (UniProt P04757+P12392); experiment: Antagonist activity at rat alpha3beta4 nAChR expressed in xenopus oocytes assessed as inhibition of Ach- induced response at 10 uM at -70 mV holding potential preincubated for 5 mins followed by Ach stimulation by voltage-clamp based electrophysiological method; format: cell-based; conditions: Oocyte
[3] = molecular target: Neuronal acetylcholine receptor; alpha3/beta2 (Rattus norvegicus, UniProt P04757+P12390); experiment: Antagonist activity at rat alpha3beta2 nAChR expressed in xenopus oocytes assessed as inhibition of Ach- induced response at -70 mV holding potential preincubated for 5 mins followed by Ach stimulation by voltage-clamp based electrophysiological method; format: cell-based, Oocyte
Neuronal acetylcholine receptor; alpha3/beta2, sequence (P04757 whole entry): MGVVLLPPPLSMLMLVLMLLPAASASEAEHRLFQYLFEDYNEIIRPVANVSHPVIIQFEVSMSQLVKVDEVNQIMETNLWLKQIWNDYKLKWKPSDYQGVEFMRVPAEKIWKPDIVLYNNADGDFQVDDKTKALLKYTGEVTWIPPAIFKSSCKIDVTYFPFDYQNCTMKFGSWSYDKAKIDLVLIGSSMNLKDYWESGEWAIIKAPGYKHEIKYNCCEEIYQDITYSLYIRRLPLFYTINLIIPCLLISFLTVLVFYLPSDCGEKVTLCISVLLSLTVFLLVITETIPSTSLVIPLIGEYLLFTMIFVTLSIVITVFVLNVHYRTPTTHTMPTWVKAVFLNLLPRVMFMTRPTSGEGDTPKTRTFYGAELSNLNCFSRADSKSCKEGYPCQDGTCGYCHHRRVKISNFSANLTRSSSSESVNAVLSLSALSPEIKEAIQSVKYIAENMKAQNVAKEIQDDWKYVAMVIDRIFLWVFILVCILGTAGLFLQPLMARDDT
Neuronal acetylcholine receptor; alpha3/beta2, sequence (P12390 whole entry): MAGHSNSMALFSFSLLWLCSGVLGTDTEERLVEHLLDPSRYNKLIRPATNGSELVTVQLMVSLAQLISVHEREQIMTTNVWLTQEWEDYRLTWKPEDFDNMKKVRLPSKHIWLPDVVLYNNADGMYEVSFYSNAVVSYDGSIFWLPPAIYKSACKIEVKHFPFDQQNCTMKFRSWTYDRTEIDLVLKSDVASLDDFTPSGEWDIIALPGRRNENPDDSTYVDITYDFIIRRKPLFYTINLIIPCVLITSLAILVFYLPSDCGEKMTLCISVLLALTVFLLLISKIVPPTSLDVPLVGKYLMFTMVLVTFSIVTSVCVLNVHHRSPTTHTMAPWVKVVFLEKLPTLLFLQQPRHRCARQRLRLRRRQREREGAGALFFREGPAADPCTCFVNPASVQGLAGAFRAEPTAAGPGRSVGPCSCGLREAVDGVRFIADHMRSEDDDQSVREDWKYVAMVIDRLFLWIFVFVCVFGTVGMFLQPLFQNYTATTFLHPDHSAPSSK

[4] = molecular target: Neuronal acetylcholine receptor; alpha2/beta4 (Rattus norvegicus) (UniProt P12389+P12392); experiment: Antagonist activity at rat alpha2beta4 nAChR expressed in xenopus oocytes assessed as inhibition of Ach- induced response at 10 uM at -70 mV holding potential preincubated for 5 mins followed by Ach stimulation by voltage-clamp based electrophysiological method; format: cell-based; conditions: Oocyte
[5] = molecular target: Nicotinic acetylcholine receptor alpha9/alpha10 (Rattus norvegicus) (UniProt P43144+Q9JLB5); experiment: Antagonist activity at rat alpha9alpha10 nAChR expressed in xenopus oocytes assessed as inhibition of Ach- induced response at 10 uM at -70 mV holding potential preincubated for 5 mins followed by Ach stimulation by voltage-clamp based electrophysiological method; format: cell-based; conditions: Oocyte
[6] = molecular target: Neuronal acetylcholine receptor subunit alpha-7 (Homo sapiens, UniProt P36544); format: cell-based, Oocyte
Neuronal acetylcholine receptor subunit alpha-7, sequence (P36544 whole entry): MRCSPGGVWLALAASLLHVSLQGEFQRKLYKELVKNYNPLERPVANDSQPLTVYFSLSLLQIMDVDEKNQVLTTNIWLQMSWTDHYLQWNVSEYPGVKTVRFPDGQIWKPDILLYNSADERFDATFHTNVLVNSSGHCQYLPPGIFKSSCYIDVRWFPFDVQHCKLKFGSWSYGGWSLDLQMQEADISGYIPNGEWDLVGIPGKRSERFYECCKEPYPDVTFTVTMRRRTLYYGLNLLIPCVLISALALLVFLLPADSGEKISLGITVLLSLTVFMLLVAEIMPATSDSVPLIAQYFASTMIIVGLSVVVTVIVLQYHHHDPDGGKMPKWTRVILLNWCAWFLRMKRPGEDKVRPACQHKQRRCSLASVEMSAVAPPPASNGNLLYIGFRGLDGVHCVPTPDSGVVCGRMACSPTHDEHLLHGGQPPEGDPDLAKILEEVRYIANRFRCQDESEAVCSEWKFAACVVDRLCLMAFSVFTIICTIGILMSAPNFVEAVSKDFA

[7] = Antagonist activity at human nAChR alpha7 H141Q/S184N/R186K triple mutant expressed in xenopus oocytes assessed as inhibition of Ach- induced response at -70 mV holding potential preincubated for 5 mins followed by Ach stimulation by voltage-clamp based electrophysiological method; format: cell-based; conditions: Oocyte
[8] = molecular target: Neuronal acetylcholine receptor; alpha2/beta2 (Rattus norvegicus, UniProt P12389+P12390); experiment: Antagonist activity at rat alpha2beta2 nAChR expressed in xenopus oocytes assessed as inhibition of Ach- induced response at -70 mV holding potential preincubated for 5 mins followed by Ach stimulation by voltage-clamp based electrophysiological method; format: cell-based, Oocyte
Neuronal acetylcholine receptor; alpha2/beta2, sequence (P12389 whole entry): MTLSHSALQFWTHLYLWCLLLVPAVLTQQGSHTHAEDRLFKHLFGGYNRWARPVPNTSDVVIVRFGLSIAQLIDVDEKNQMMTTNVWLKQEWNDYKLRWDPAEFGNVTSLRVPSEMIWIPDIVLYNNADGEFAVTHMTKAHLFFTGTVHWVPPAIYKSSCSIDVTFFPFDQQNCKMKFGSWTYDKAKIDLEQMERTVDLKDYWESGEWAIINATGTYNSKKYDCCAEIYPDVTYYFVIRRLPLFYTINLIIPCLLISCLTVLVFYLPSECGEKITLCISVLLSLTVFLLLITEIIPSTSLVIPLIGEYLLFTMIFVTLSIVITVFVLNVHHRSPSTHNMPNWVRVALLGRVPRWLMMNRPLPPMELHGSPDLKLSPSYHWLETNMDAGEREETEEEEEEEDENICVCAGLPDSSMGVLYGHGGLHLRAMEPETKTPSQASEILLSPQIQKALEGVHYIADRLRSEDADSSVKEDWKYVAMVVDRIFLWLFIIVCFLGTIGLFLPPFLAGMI
Neuronal acetylcholine receptor; alpha2/beta2, sequence (P12390 whole entry): as the sequence (P12390 whole entry) above

[9] = molecular target: Nicotinic acetylcholine receptor alpha9/alpha10 (Rattus norvegicus, UniProt P43144+Q9JLB5); experiment: Antagonist activity at rat alpha9alpha10 nAChR expressed in xenopus oocytes assessed as inhibition of Ach- induced response at -70 mV holding potential preincubated for 5 mins followed by Ach stimulation by voltage-clamp based electrophysiological method; format: cell-based, Oocyte
[10] = Antagonist activity at human nAChR alpha7 S184N/R186K double mutant expressed in xenopus oocytes assessed as inhibition of Ach- induced response at -70 mV holding potential preincubated for 5 mins followed by Ach stimulation by voltage-clamp based electrophysiological method; format: cell-based; conditions: Oocyte
[11] = molecular target: Nicotinic acetylcholine receptor alpha6/alpha3/beta4 (Homo sapiens, UniProt P30926+P32297+Q15825); experiment: Antagonist activity at rat alpha6/alpha3beta4 nAChR expressed in xenopus oocytes assessed as inhibition of Ach- induced response at -70 mV holding potential preincubated for 5 mins followed by Ach stimulation by voltage-clamp based electrophysiological method; format: cell-based, Oocyte
Nicotinic acetylcholine receptor alpha6/alpha3/beta4, sequence (P30926 whole entry): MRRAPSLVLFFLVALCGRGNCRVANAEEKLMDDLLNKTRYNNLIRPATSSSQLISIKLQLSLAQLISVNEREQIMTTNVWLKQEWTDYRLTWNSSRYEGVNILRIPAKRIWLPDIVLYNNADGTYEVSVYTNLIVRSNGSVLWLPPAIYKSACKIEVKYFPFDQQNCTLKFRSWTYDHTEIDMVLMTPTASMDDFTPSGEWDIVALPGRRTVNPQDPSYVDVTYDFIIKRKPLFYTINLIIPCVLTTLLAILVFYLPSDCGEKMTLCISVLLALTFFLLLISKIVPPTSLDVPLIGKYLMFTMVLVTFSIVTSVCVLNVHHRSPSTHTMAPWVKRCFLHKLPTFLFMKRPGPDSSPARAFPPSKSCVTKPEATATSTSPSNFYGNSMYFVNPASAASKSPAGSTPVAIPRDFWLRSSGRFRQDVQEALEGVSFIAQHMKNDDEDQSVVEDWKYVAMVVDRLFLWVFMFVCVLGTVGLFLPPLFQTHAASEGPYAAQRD
Nicotinic acetylcholine receptor alpha6/alpha3/beta4, sequence (P32297 whole entry): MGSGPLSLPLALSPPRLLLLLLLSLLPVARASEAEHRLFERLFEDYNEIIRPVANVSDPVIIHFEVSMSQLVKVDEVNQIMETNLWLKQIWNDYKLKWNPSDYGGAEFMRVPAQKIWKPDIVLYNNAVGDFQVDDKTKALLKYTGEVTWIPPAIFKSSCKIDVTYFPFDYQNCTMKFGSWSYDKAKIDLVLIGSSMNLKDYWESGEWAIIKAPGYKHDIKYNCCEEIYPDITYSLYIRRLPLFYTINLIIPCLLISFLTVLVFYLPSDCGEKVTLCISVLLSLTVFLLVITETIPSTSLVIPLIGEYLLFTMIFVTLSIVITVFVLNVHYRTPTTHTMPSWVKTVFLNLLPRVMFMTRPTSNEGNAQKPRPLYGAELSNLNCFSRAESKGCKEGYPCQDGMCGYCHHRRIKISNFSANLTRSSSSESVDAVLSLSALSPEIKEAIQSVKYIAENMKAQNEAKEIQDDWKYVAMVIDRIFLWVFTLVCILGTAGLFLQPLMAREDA
Nicotinic acetylcholine receptor alpha6/alpha3/beta4, sequence (Q15825 whole entry): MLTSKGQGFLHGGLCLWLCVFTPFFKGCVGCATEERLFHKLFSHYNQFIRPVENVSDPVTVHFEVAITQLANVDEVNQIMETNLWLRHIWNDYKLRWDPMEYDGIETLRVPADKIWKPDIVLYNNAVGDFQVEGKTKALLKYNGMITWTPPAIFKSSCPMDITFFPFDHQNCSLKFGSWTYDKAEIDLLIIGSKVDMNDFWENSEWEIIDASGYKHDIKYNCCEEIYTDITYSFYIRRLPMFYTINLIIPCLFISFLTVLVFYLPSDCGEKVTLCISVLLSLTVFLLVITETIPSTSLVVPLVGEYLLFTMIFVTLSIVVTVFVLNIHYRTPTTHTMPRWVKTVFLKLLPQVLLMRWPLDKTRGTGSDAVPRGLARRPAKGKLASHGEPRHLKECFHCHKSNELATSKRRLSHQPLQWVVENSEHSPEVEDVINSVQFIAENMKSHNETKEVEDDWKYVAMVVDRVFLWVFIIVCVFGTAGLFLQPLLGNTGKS

[12] = Antagonist activity at rat nAChR alpha7 N184S mutant expressed in xenopus oocytes assessed as inhibition of Ach- induced response at -70 mV holding potential preincubated for 5 mins followed by Ach stimulation by voltage-clamp based electrophysiological method; format: cell-based; conditions: Oocyte
[13] = Antagonist activity at rat nAChR alpha7 M177V mutant expressed in xenopus oocytes assessed as inhibition of Ach- induced response at -70 mV holding potential preincubated for 5 mins followed by Ach stimulation by voltage-clamp based electrophysiological method; format: cell-based; conditions: Oocyte
[14] = Antagonist activity at rat nAChR alpha7 R6K mutant expressed in xenopus oocytes assessed as inhibition of Ach- induced response at -70 mV holding potential preincubated for 5 mins followed by Ach stimulation by voltage-clamp based electrophysiological method; format: cell-based; conditions: Oocyte
[15] = Antagonist activity at rat nAChR alpha7 Y200F mutant expressed in xenopus oocytes assessed as inhibition of Ach- induced response at -70 mV holding potential preincubated for 5 mins followed by Ach stimulation by voltage-clamp based electrophysiological method; format: cell-based; conditions: Oocyte
[16] = Antagonist activity at human nAChR alpha7 H141Q mutant expressed in xenopus oocytes assessed as inhibition of Ach- induced response at -70 mV holding potential preincubated for 5 mins followed by Ach stimulation by voltage-clamp based electrophysiological method; format: cell-based; conditions: Oocyte
[17] = molecular target: Neuronal acetylcholine receptor; alpha2/beta4 (Rattus norvegicus, UniProt P12389+P12392); experiment: Antagonist activity at rat alpha2beta4 nAChR expressed in xenopus oocytes assessed as inhibition of Ach- induced response at -70 mV holding potential preincubated for 5 mins followed by Ach stimulation by voltage-clamp based electrophysiological method; format: cell-based, Oocyte
Neuronal acetylcholine receptor; alpha2/beta4, sequence (P12389 whole entry): as the sequence (P12389 whole entry) above
Neuronal acetylcholine receptor; alpha2/beta4, sequence (P12392 whole entry): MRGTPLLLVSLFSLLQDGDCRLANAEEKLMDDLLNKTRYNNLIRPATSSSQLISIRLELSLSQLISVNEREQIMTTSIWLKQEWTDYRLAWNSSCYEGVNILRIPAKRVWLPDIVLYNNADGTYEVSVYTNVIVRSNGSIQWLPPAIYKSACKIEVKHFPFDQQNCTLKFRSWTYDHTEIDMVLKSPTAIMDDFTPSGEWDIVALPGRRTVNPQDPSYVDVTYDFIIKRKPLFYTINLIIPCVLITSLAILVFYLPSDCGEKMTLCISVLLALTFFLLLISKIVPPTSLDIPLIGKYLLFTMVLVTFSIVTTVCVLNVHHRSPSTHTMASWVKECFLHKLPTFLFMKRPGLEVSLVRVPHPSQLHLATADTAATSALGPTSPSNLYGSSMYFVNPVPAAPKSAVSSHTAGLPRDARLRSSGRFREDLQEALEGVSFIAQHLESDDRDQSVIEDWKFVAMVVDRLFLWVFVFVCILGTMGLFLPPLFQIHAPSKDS

[18] = molecular target: Neuronal acetylcholine receptor; alpha4/beta4 (Rattus norvegicus) (UniProt P09483+P12392); experiment: Antagonist activity at rat alpha4beta4 nAChR expressed in xenopus oocytes assessed as inhibition of Ach- induced response at 10 uM at -70 mV holding potential preincubated for 5 mins followed by Ach stimulation by voltage-clamp based electrophysiological method; format: cell-based; conditions: Oocyte
[19] = Antagonist activity at rat nAChR alpha7 M69V mutant expressed in xenopus oocytes assessed as inhibition of Ach- induced response at -70 mV holding potential preincubated for 5 mins followed by Ach stimulation by voltage-clamp based electrophysiological method; format: cell-based; conditions: Oocyte
[20] = Antagonist activity at rat nAChR alpha7 S167G mutant expressed in xenopus oocytes assessed as inhibition of Ach- induced response at -70 mV holding potential preincubated for 5 mins followed by Ach stimulation by voltage-clamp based electrophysiological method; format: cell-based; conditions: Oocyte
[21] = Antagonist activity at human nAChR alpha7 S184N mutant expressed in xenopus oocytes assessed as inhibition of Ach- induced response at -70 mV holding potential preincubated for 5 mins followed by Ach stimulation by voltage-clamp based electrophysiological method; format: cell-based; conditions: Oocyte
[22] = molecular target: Neuronal acetylcholine receptor; alpha2/beta2 (Rattus norvegicus) (UniProt P12389+P12390); experiment: Antagonist activity at rat alpha2beta2 nAChR expressed in xenopus oocytes assessed as inhibition of Ach- induced response at 10 uM at -70 mV holding potential preincubated for 5 mins followed by Ach stimulation by voltage-clamp based electrophysiological method; format: cell-based; conditions: Oocyte
[23] = molecular target: Neuronal acetylcholine receptor; alpha4/beta2 (Rattus norvegicus, UniProt P09483+P12390); experiment: Antagonist activity at rat alpha4beta2 nAChR expressed in xenopus oocytes assessed as inhibition of Ach- induced response at -70 mV holding potential preincubated for 5 mins followed by Ach stimulation by voltage-clamp based electrophysiological method; format: cell-based, Oocyte
Neuronal acetylcholine receptor; alpha4/beta2, sequence (P09483 whole entry): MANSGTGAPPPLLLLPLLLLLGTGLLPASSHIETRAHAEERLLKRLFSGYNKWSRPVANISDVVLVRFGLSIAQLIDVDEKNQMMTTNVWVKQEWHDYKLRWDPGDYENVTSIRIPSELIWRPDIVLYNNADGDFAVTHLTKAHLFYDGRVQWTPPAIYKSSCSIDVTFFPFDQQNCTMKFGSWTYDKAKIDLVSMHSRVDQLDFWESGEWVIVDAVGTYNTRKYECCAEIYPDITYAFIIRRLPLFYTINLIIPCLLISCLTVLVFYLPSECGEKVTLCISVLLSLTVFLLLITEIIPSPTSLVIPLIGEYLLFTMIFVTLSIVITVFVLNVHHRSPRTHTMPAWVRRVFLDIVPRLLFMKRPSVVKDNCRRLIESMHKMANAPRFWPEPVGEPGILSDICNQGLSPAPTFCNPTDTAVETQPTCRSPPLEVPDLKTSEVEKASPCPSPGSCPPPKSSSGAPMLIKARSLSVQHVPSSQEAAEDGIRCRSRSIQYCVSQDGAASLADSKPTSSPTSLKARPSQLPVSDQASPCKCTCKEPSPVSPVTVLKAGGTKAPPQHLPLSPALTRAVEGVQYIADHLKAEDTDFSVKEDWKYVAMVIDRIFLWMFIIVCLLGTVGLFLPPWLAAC
Neuronal acetylcholine receptor; alpha4/beta2, sequence (P12390 whole entry): as the sequence (P12390 whole entry) above

[24] = Antagonist activity at rat alpha6/ alpha3beta2beta3 nAChR expressed in xenopus oocytes assessed as inhibition of Ach- induced response at -70 mV holding potential preincubated for 5 mins followed by Ach stimulation by voltage-clamp based electrophysiological method; format: cell-based; conditions: Oocyte

Question: With `C[C@@H]1NC(=O)[C@@H]2CSSC[C@H](NC(=O)CN)C(=O)N[C@@H](CSSC[C@@H](C(N)=O)NC(=O)[C@H](Cc3cnc[nH]3)NC(=O)[C@H](CCC(=O)O)NC(=O)[C@H](Cc3cnc[nH]3)NC1=O)C(=O)N[C@@H](CO)C(=O)N[C@@H](CC(N)=O)C(=O)N1CCC[C@H]1C(=O)N1CCC[C@H]1C(=O)N2` (H-GCCSNPPCAHEHC-NH2; disulfide 2-8, 3-13) as the compound, how does the pIC50 [1] read?
Answer: 6.37

Question: What about the inhibition [2] of the same compound?
Answer: inactive

Question: What about the pIC50 [3] of the same compound?
Answer: 6.46

Question: What about the inhibition [4] of the same compound?
Answer: inactive

Question: And the inhibition [5]?
Answer: inactive

Question: And the pIC50 [6]?
Answer: 5.80

Question: What about the pIC50 [7] of the same compound?
Answer: 6.66

Question: What about the pIC50 [8] of the same compound?
Answer: < 5.00

Question: What about the pIC50 [9] of the same compound?
Answer: < 5.00

Question: What about the pIC50 [10] of the same compound?
Answer: 6.28

Question: And the pIC50 [11]?
Answer: 5.85

Question: And the pIC50 [12]?
Answer: 6.15

Question: And the pIC50 [13]?
Answer: 6.80

Question: And the pIC50 [14]?
Answer: 6.77

Question: What about the pIC50 [15] of the same compound?
Answer: 6.72

Question: What about the pIC50 [16] of the same compound?
Answer: 5.97

Question: What about the pIC50 [17] of the same compound?
Answer: < 5.00

Question: What about the inhibition [18] of the same compound?
Answer: inactive

Question: And the pIC50 [19]?
Answer: 6.89

Question: What about the pIC50 [20] of the same compound?
Answer: 6.70

Question: And the pIC50 [21]?
Answer: 6.07

Question: What about the inhibition [22] of the same compound?
Answer: inactive

Question: And the pIC50 [23]?
Answer: < 5.00

Question: And the pIC50 [24]?
Answer: 6.82
